Measurements as given in patent publication US12655116B2, “Substituted isophthalic acid diamides” (Bayer Aktiengesellschaft, priority 2020, dated 2026).

Legend:
[1] = tested on: ALOMY; assay: Pre-emergence herbicidal action against ALOMY; type: in vivo, Alopecurus myosuroides; conditions: 80 g/ha, pre-emergence, scored visually after 3 weeks vs untreated controls (100% = plants have died, 0% = like control plants)
Procedure, shortened: (§1)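 Seeds sown in sandy loam, soil-covered; compound sprayed on soil surface pre-emergence. Application: WP/EC, 600–800 l/ha, 0.2% wetting agent. Readout: visual % damage at 3 weeks.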

[2] = tested on: ALOMY; assay: Post-emergence herbicidal action against ALOMY; type: in vivo, Alopecurus myosuroides; conditions: dosage 20 g/ha, visual assessment about 3 weeks after treatment vs untreated controls
Procedure, shortened: (§2)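 Percent herbicidal action is rated by eye about 3 weeks after treatment against untreated controls, where 100% means dead plants and 0% means like controls. Plants in sandy loam are sprayed on green parts at the one-leaf stage with aqueous WP or EC preparations at 600 to 800 l/ha plus 0.2% wetting agent.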

[3] = tested on: ECHCG; assay: Pre-emergence herbicidal action against ECHCG; type: in vivo, Echinochloa crus-galli; conditions: 80 g/ha
Procedure, shortened: as §1

[4] = tested on: DIGSA; assay: Post-emergence herbicidal action against DIGSA; type: in vivo, Digitaria sanguinalis; conditions: for Post-emergence action against DIGSA: 20 g/ha
Procedure, shortened: as §2

[5] = tested on: MATIN; assay: Pre-emergence herbicidal action against MATIN; type: in vivo, Matricaria inodora
Procedure, shortened: as §1

[6] = tested on: STEME; assay: Pre-emergence herbicidal action against STEME; type: in vivo, Stellaria media
Excerpt: Seeds of monocotyledonous and dicotyledonous weed plants and crop plants are laid out in sandy loam soil in wood-fiber pots and covered with soil. The compounds of the invention, formulated in the form of wettable powders (WP) or as emulsion concentrates (EC), are then applied to the surface of the covering soil in the form of an aqueous suspension or emulsion at a water application rate equivalent to 600 to 800 l/ha, with addition of 0.2% wetting agent. After the treatment, the pots are placed in a greenhouse and kept under good growth conditions for the trial plants. The damage to the test plants is scored visually after a test period of 3 weeks by comparison with untreated controls (herbicidal activity in percent (%): 100% activity=the plants have died, 0% activity=like control plants). […] The tables below illustrate, in an illustrative manner, the post-emergence herbicidal action of the compounds of the invention, the herbicidal activity being stated in percent.

[7] = tested on: SETVI; assay: Post-emergence herbicidal action against SETVI; type: in vivo, Setaria viridis
Procedure, shortened: as §2

[8] = tested on: AMARE; assay: Post-emergence herbicidal action against AMARE; type: in vivo, Amaranthus retroflexus; conditions: 20 g/ha, visual assessment about 3 weeks after treatment, 100% = plants have died, 0% = like control plants
Procedure, shortened: as §2

[9] = tested on: AMARE; assay: Pre-emergence herbicidal action against AMARE; type: in vivo, Amaranthus retroflexus
Procedure, shortened: as §1

[10] = tested on: STEME; assay: Post-emergence herbicidal action against STEME; type: in vivo, Stellaria media
Procedure: Seeds of monocotyledonous and dicotyledonous weed and crop plants are laid out in sandy loam soil in wood-fiber pots, covered with soil and cultivated in a greenhouse under good growth conditions. 2 to 3 weeks after sowing, the test plants are treated at the one-leaf stage. The compounds of the invention, formulated in the form of wettable powders (WP) or as emulsion concentrates (EC), are then sprayed onto the green parts of the plants in the form of an aqueous suspension or emulsion at a water application rate equivalent to 600 to 800 l/ha, with addition of 0.2% wetting agent. After the test plants have been left to stand in the greenhouse under optimal growth conditions for about 3 weeks, the action of the preparations is assessed visually in comparison to untreated controls (herbicidal action in percent (%): 100% activity=the plants have died, 0% activity=like control plants). […] The tables below illustrate, in an illustrative manner, the post-emergence herbicidal action of the compounds of the invention, the herbicidal activity being stated in percent.

[11] = tested on: ABUTH; assay: Post-emergence herbicidal action against ABUTH; type: in vivo, Abutilon theophrasti; conditions: visual assessment about 3 weeks after treatment vs untreated controls
Procedure, shortened: as §2

[12] = tested on: DIGSA; assay: Pre-emergence herbicidal action against DIGSA; type: in vivo, Digitaria sanguinalis
Procedure, shortened: as §1

[13] = tested on: SETVI; assay: Pre-emergence herbicidal action against SETVI; type: in vivo, Setaria viridis; conditions: dosage 80 g/ha
Procedure, shortened: as §1

[14] = tested on: ECHCG; assay: Post-emergence herbicidal action against ECHCG; type: in vivo, Echinochloa crus-galli
Procedure, shortened: as §2

[15] = tested on: ABUTH; assay: Pre-emergence herbicidal action against ABUTH; type: in vivo, Abutilon theophrasti; conditions: for Pre-emergence action against ABUTH (herbicidal activity): 80 g/ha, scored visually after 3 weeks vs untreated controls (100% = plants have died, 0% = like control plants); for Pre-emergence action against ABUTH (herbicidal activity in percent): dosage 20 g/ha, scored visually after 3 weeks vs untreated controls, 100% = plants have died, 0% = like control plants
Procedure, shortened: as §1

[16] = tested on: VIOTR; assay: Post-emergence herbicidal action against VIOTR; type: in vivo, Viola tricolor
Procedure, shortened: as §2

[17] = tested on: VIOTR; assay: Pre-emergence herbicidal action against VIOTR; type: in vivo, Viola tricolor; conditions: dosage 80 g/ha
Procedure, shortened: as §1

[18] = tested on: AVEFA; assay: Pre-emergence herbicidal action against AVEFA; type: in vivo, Avena fatua; conditions: 80 g/ha, pre-emergence
Procedure, shortened: as §1

[19] = 20 g/ha, scored visually after 3 weeks vs untreated controls, 100% = plants have died, 0% = like control plants
[20] = 80 g/ha, scored visually after 3 weeks vs untreated controls (100% = plants have died, 0% = like control plants)

SMILES	Post-emergence action against DIGSA [4] [%]	Pre-emergence action against MATIN in % ([5]; dosage 20 g/ha) [%]	Pre-emergence action against MATIN in % ([5]; dosage 80 g/ha) [%]	Pre-emergence action against STEME in % ([6]; dosage 20 g/ha) [%]	Pre-emergence action against STEME in % ([6]; dosage 80 g/ha) [%]	Post-emergence action against SETVI in % ([7]; dosage 20 g/ha) [%]	Post-emergence action at 20 g/ha against AMARE in % [8] [%]	Pre-emergence action against AMARE in % [9, 19] [%]	Pre-emergence action against AMARE in % [9, 20] [%]	Post-emergence action against STEME in % ([10]; 20 g/ha) [%]	Post-emergence action against ABUTH in % ([11]; dosage 5 g/ha) [%]	Post-emergence action against ABUTH in % ([11]; dosage 20 g/ha) [%]	Pre-emergence action against DIGSA in % ([12]; dosage 20 g/ha) [%]	Pre-emergence action against DIGSA in % ([12]; dosage 80 g/ha) [%]	Pre-emergence action against SETVI in % [13] [%]	Post-emergence action against ECHCG in % ([14]; dosage 20 g/ha) [%]	Pre-emergence action against ABUTH (herbicidal activity) [15] [%]	Pre-emergence action against ABUTH (herbicidal activity in percent) [15] [%]	Pre-emergence action against VIOTR in % [17] [%]	further results
CCc1c(C(=O)Nc2nnc(C)o2)ccc(C(F)(F)F)c1C(=O)NC1CC1 [Example 6-212]	90	80	90	80	90	80	90	90	90	90	80	90	100	100	90	90	90	80	–	Pre-emergence action against ALOMY (herbicidal activity) [1]: 80%; Post-emergence action against ALOMY in % [2]: 80%; Pre-emergence action against ECHCG in % [3]: 90%; Post-emergence action against DIGSA in % ([4]; 5 g/ha): 80%; Post-emergence action against STEME in % ([10]; dosage 5 g/ha): 80%; Post-emergence action against ECHCG in % ([14]; dosage 5 g/ha): 90%
CCn1nnnc1NC(=O)c1ccc(S(C)(=O)=O)c(C(=O)NC2CC2)c1Cl [Example 2-125]	–	80	100	80	100	–	80	80	100	80	–	–	–	–	–	–	100	–	100	Post-emergence action against VIOTR in % ([16]; 5 g/ha): 100%; Post-emergence action against VIOTR in % ([16]; 20 g/ha): 100%; Pre-emergence action against AVEFA in % [18]: 100%
NC(=O)c1c(C(F)(F)F)ccc(C(=O)Nc2nnco2)c1Cl [Example 5-253]	80	–	–	–	90	80	80	100	100	80	90	90	80	90	80	80	100	90	90	Post-emergence action against SETVI in % ([7]; dosage 5 g/ha): 80%
